Test results reported in US20250360120A1, “METHODS OF TREATMENT OF DRAVET SYNDROME” (Noema Pharma AG, priority 2023, published 2025).

Test system: Scn1a+/− mice
Test: Seizure frequency, seizure freedom and time to first seizure (frontal cortex EEG) in Scn1a+/− mice
Format: in vivo
Conditions: for Odds Ratio of seizure freedom (vs Untreated) / Probability of seizure freedom: GLM binomial; for median time to first seizure: Kaplan-Meier, Untreated group 7 days
Protocol: Heterozygous deletion of Sca1a in mice (Scn1a+/−) recapitulates several core phenotypes of clinical Dravet syndrome, including temperature-dependent and spontaneous seizures, SUDEP, and behavioral abnormalities. […] As such, Scn1a+/−mice are a favourable model to enable translation of novel ASMs with varied mechanism of action to the clinic.
The experiment was conducted to evaluate the effect of Compound I, CTEP and RO6807794 on seizure frequency, seizure freedom and survival in Scn1a+/− mice.
Frontal cortex recordings were selected as representative of the seizure phenomenology on mice experiencing generalized seizures. EEG headmounts were implanted between P20-22 and recordings were initiated for continuous monitoring for a period of approximately 14-days for the NAM group and PAM group. Individual frontal cortex seizure measurements over time were visually explored and summaries across the time course were calculated. • 1. Seizure frequency
Seizure frequency was measured by count of the number of seizures observed each day. The frequency was analyzed using a Chi-square test (all treatments) and Fisher's Exact test (pairwise treatment comparisons). • 2. Seizure freedom
Seizure freedom was measured with a binary (0 or 1) endpoint, where it was recorded as a […] was recorded across the whole study. Seizure freedom was summarized across all animals into a contingency table and analyzed using a generalized linear model (GLM) with a binomial distribution for the errors and a logit link function. The results were presented as probabilities and odds ratios between groups and 95% confidence intervals. The odd ratio described how much more likely it is for an animal to have no seizures (Seizure freedom=1) in a treated group compared to the untreated group. Analyses were performed using GraphPad Prism 9 (contingency table) and SAS 9.4 (binomial model). • 3. Time to first seizure:
Time to first seizure refers the time recorded as the day on which the first seizure occurred (an observed, uncensored observation), or the final day of recording for that animal if on seizure was observed (a censored observation). Time to first seizure was visualized using a Kaplan-Meier plot and analyzed using a Log-rank (Mantel-Cox) test. Analyses were performed using GraphPad Prism 9. • 4. Total seizure burden
Total seizure burden is sum of the seizure frequency across all study days. • 5. Seizure per day
Seizure per day is measured by the total seizure count divided by the number of study days, wherein a seizure count measurement was adjusted by the number of days the animal was in the study.
Time to first seizure and Seizure per day were explored visually and analyzed using analysis of variance (ANOVA). Results were presented as geometric means, ratios of geometric means, confidence intervals and p-values. An additional non-parametric analysis, Kruskal-Wallis, was explored along with Wilcoxon pairwise comparisons to the Untreated group. The data was also analyzed using a generalized linear model (GLM) with a Poisson distribution for the errors and a log link function. The linear predictor described a model suitable for exploring a fixed effect of treatment group.

[1] = 0.3 mg/kg PO once daily for 28-days from P10
[2] = 1 mg/kg PO once daily for 28-days from P10
[3] = ANOVA on log10 adjusted scale, 0.3 mg/kg PO once daily for 28-days from P10
[4] = ANOVA on log10 adjusted scale, 1 mg/kg PO once daily for 28-days from P10
[5] = Generalized Linear Model on discrete (count) data, 0.3 mg/kg PO once daily for 28-days from P10
[6] = Generalized Linear Model on discrete (count) data, 1 mg/kg PO once daily for 28-days from P10
[7] = Kruskal-Wallis with Wilcoxon pairwise tests, 1 mg/kg PO once daily for 28-days from P10
[8] = exploratory ANOVA on log10 scale, 0.3 mg/kg PO once daily for 28-days from P10
[9] = exploratory ANOVA on log10 scale, 1 mg/kg PO once daily for 28-days from P10
[10] = ANOVA on log10 adjusted scale, 0.3 mg/kg IP once daily for 5-days from P21
[11] = Generalized Linear Model on discrete (count) data, 0.3 mg/kg IP once daily for 5-days from P21
[12] = 0.3 mg/kg PO every other day for 28-days
[13] = ANOVA on log10 adjusted scale, 0.3 mg/kg PO every other day for 28-days
[14] = Generalized Linear Model on discrete (count) data, 0.3 mg/kg PO every other day for 28-days
[15] = Kruskal-Wallis with Wilcoxon pairwise tests, 0.3 mg/kg PO every other day for 28-days
[16] = exploratory ANOVA on log10 scale, 0.3 mg/kg PO every other day for 28-days

Cc1nc(C#Cc2ccnc(Cl)c2)c(C)n1-c1ccc(F)cc1 [Compound I, 2-chloro-4-[1-(4-fluorophenyl)-2,5-dimethyl-1H-imidazol-4-ylethynyl]pyridine]
Frequency of animals with At least 1 Seizure [1]: 10 | Frequency of animals with No Seizures (seizure freedom) [1]: 1 | Percent of animals with At least 1 Seizure [1]: 90.9% | Percent of animals with No Seizures (seizure freedom) [1]: 9.1% | Frequency of animals with At least 1 Seizure [2]: 3 | Frequency of animals with No Seizures (seizure freedom) [2]: 10 | Percent of animals with At least 1 Seizure [2]: 23.1% | Percent of animals with No Seizures (seizure freedom) [2]: 76.9% | animals with Seizure Freedom over time (Kaplan-Meier, in words) [2]: more animals with Seizure Freedom for a longer duration | chance of seizure freedom (1 mg/kg PO once daily for 28-days from P10, 25% in the Untreated group): 77% | Seizure per day, % Change compared to untreated group [3]: 183.96% | Seizure per day, Geometric Mean [3]: 0.349 | Seizure per day, Ratio of Means compared to untreated group [3]: 2.84 | Seizure per day, % Change compared to untreated group [4]: −84.81% | Seizure per day, Geometric Mean [4]: 0.019 | Seizure per day, Ratio of Means compared to untreated group [4]: 0.15 | reduction of average seizure per day compared to the Untreated group [4]: 79% | Odds Ratio of seizure freedom (vs Untreated) [1]: 0.3 | Probability of seizure freedom [1]: 0.09 | Odds Ratio of seizure freedom (vs Untreated) [2]: 10 | Probability of seizure freedom [2]: 0.77 | reduction of total seizure burden compared to the Untreated group (GLM on discrete (count) data, 1 mg/kg PO once daily for 28-days from P10): 44% | Seizure per day, % Change vs Untreated [5]: 85.38% | Seizure per day, Geometric Mean [5]: 0.910 | Seizure per day, Ratio of Means vs Untreated [5]: 1.85 | Total Seizure Burden, % Change vs Untreated [5]: 87.21% | Total Seizure Burden, Geometric Mean [5]: 12.64 | Total Seizure Burden, Ratio of Means vs Untreated [5]: 1.87 | Seizure per day, % Change vs Untreated [6]: −46.32% | Seizure per day, Geometric Mean [6]: 0.263 | Seizure per day, Ratio of Means vs Untreated [6]: 0.54 | Total Seizure Burden, % Change vs Untreated [6]: −44.16% | Total Seizure Burden, Geometric Mean [6]: 3.77 | Total Seizure Burden, Ratio of Means vs Untreated [6]: 0.56 | median time to first seizure [1]: 2 days | seizure per day rates compared to the Untreated group (in words) [7]: decreased seizure per day rates | total seizure burden compared to the Untreated group (in words) [7]: lower total seizure burden | Total Seizure Burden, % Change compared to Untreated group [8]: 136.21% | Total Seizure Burden, Geometric Mean [8]: 4.16 | Total Seizure Burden, Ratio of Means compared to Untreated group [8]: 2.36 | Total Seizure Burden, % Change compared to Untreated group [9]: −84.25% | Total Seizure Burden, Geometric Mean [9]: 0.28 | Total Seizure Burden, Ratio of Means compared to Untreated group [9]: 0.16 | reduction of total seizure burden compared to the Untreated group [9]: 84%

CN(C(=O)c1ncc(C#Cc2cccc(F)c2)cn1)C(C)(C)C [RO6807794, reference compound]
Seizure per day, % Change compared to untreated group [10]: 751.1% | Seizure per day, Geometric Mean [10]: 1.046 | Seizure per day, Ratio of Means compared to untreated group [10]: 8.51 | seizure per day rates compared to the Untreated group (in words) (GLM on discrete (count) data, 0.3 mg/kg IP once daily for 5-days from P21): statistically significantly increased seizure per day rates | Seizure per day, % Change vs Untreated [11]: 407.47% | Seizure per day, Geometric Mean [11]: 2.490 | Seizure per day, Ratio of Means vs Untreated [11]: 5.07 | median time to first seizure (0.3 mg/kg IP once daily for 5-days from P21): 3 days | seizure per day rates compared to the Untreated group (in words) (Kruskal-Wallis with Wilcoxon pairwise tests, 0.3 mg/kg IP once daily for 5-days from P21): increased seizure per day rates

Cc1nc(C#Cc2ccnc(Cl)c2)c(C)n1-c1ccc(OC(F)(F)F)cc1 [CTEP, reference compound]
Frequency of animals with At least 1 Seizure [12]: 4 | Frequency of animals with No Seizures (seizure freedom) [12]: 11 | Percent of animals with At least 1 Seizure [12]: 26.7% | Percent of animals with No Seizures (seizure freedom) [12]: 73.3% | animals with Seizure Freedom over time (Kaplan-Meier, in words) [12]: more animals with Seizure Freedom for a longer duration | Seizure per day, % Change compared to untreated group [13]: −79.05% | Seizure per day, Geometric Mean [13]: 0.026 | Seizure per day, Ratio of Means compared to untreated group [13]: 0.21 | reduction of average seizure per day compared to the Untreated group [13]: 85% | Odds Ratio of seizure freedom (vs Untreated) [12]: 8.25 | Probability of seizure freedom [12]: 0.73 | reduction of total seizure burden compared to the Untreated group (GLM on discrete (count) data, 0.3 mg/kg PO every other day for 28-days): 62% | Seizure per day, % Change vs Untreated [14]: −23.56% | Seizure per day, Geometric Mean [14]: 0.375 | Seizure per day, Ratio of Means vs Untreated [14]: 0.76 | Total Seizure Burden, % Change vs Untreated [14]: −62.47% | Total Seizure Burden, Geometric Mean [14]: 2.53 | Total Seizure Burden, Ratio of Means vs Untreated [14]: 0.38 | seizure per day rates compared to the Untreated group (in words) [15]: decreased seizure per day rates | total seizure burden compared to the Untreated group (in words) [15]: lower total seizure burden | Total Seizure Burden, % Change compared to Untreated group [16]: −82.08% | Total Seizure Burden, Geometric Mean [16]: 0.32 | Total Seizure Burden, Ratio of Means compared to Untreated group [16]: 0.18 | reduction of total seizure burden compared to the Untreated group [16]: 82%
